The values that follow come from ChEMBL document CHEMBL1255229, “Novel antimicrobial peptides that exhibit activity against select agents and other drug resistant bacteria” (2010).

As usually defined, the MIC is the lowest concentration found to suppress growth. Read a low MIC as a more susceptible organism.

Type in all cases: functional
Test [1] deals with Acinetobacter baumannii. The experiment in a line: Antimicrobial activity against Acinetobacter baumannii ATCC 19606 after 24 hrs. As to conditions: ATCC 19606 = CIP 70.34 = JCM 6841, 24 h.
Test [2] has as its system Acinetobacter baumannii. Briefly: Antimicrobial activity against Acinetobacter baumannii WRAIR after 24 hrs.
The next test relates to Staphylococcus aureus. The experiment in a line: Antimicrobial activity against methicillin-resistant Staphylococcus aureus ATCC 33591 after 24 hrs. As to conditions: ATCC 33591, 24 h.
For a further test, the system named is Yersinia pestis. Briefly: Antimicrobial activity against Yersinia pestis CO92 after 24 hrs. The conditions noted are these: CO92, 24 h.
The test system of the next test is Brucella melitensis. Briefly: Antimicrobial activity against Brucella melitensis 16 M after 24 hrs.
The test system of a further test is Brucella abortus. Briefly: Antimicrobial activity against Brucella abortus 2308 after 24 hrs. As to conditions: Brucella abortus, 2308, 24 h.
Another test has as its system Brucella suis. Briefly: Antimicrobial activity against Brucella suis ATCC 23445 after 24 hrs. The conditions noted are these: ATCC 23445, 24 h.
In a further test the test system is Bacillus anthracis. The experiment in a line: Antimicrobial activity against Bacillus anthracis Ames after 24 hrs.
The next test concerns Francisella tularensis. The experiment in a line: Antimicrobial activity against Francisella tularensis SCHU-S4 after 24 hrs. As to conditions: SCHU-S4, 24 h.
A further test concerns Burkholderia mallei. Briefly: Antimicrobial activity against Burkholderia mallei ATCC 23444 after 24 hrs. The conditions noted are these: ATCC 23444, 24 h.
Test [3] concerns Burkholderia pseudomallei. Briefly: Antimicrobial activity against Burkholderia pseudomallei BURK003(1026b) after 24 hrs.

Values after ≈ are worked out from the molar mass of the structure shown. Starred links: 1 amine or outer side, 2 acyl side, 3 side chain; linkers in the order of their positions; H or OH if unused. Non-standard residues stand in square brackets, D forms with d. Residues, ends and D or L forms follow the SMILES beside them. X1 = O=C([C@@H]1CN([*:1])C2CCCCC21)[*:2]; Tic = O=C(O)[C@@H]1Cc2ccccc2CN1; GABA = NCCCC(=O)O; βAla = NCCC(=O)O

In the case of `CC(=O)NCCCC(=O)N[C@@H](Cc1ccccc1)C(=O)N1Cc2ccccc2C[C@H]1C(=O)N1C[C@@H](C(=O)NCCCC(=O)N[C@@H](CCCCN)C(=O)N2Cc3ccccc3C[C@H]2C(=O)N2C[C@@H](C(=O)NCCCC(=O)N[C@@H](Cc3ccccc3)C(=O)N3Cc4ccccc4C[C@H]3C(=O)N3C[C@@H](C(=O)NCCCC(=O)N[C@@H](CCCCN)C(=O)N4Cc5ccccc5C[C@H]4C(=O)N[C@@H](CCCCN)C(=O)N[C@@H](CCCCN)C(=O)N[C@@H](CCCCN)C(=O)N[C@@H](CCCCN)C(N)=O)C4CCCCC43)C3CCCCC32)C2CCCCC21` (stereo partly drawn) (Ac-[GABA]F[Tic][X1][GABA]K[Tic][X1][GABA]F[Tic][X1][GABA]K[Tic]KKKK-NH2), the MIC against Acinetobacter baumannii [1] was determined as 3.1 µM (≈ 7.92 µg/mL); in the test on Acinetobacter baumannii [2], 3.1 µM (≈ 7.92 µg/mL); against Staphylococcus aureus, 196 µM (≈ 500 µg/mL); against Yersinia pestis it was 196 µM (≈ 500 µg/mL); against Brucella melitensis it was 196 µM (≈ 500 µg/mL); against Brucella abortus, 196 µM (≈ 500 µg/mL). Moreover, the MIC was found to be 196 µM (≈ 500 µg/mL) with Brucella suis; 12.5 µM (≈ 31.9 µg/mL) against Bacillus anthracis; 196 µM (≈ 500 µg/mL) against Francisella tularensis; 196 µM (≈ 500 µg/mL) against Burkholderia mallei; 196 µM (≈ 500 µg/mL) in test [3].
With `CC(=O)NCCCC(=O)N[C@@H](Cc1ccccc1)C(=O)N1Cc2ccccc2C[C@H]1C(=O)N1C[C@@H](C(=O)NCCCC(=O)N[C@@H](CCCCN)C(=O)N2Cc3ccccc3C[C@H]2C(=O)N2C[C@@H](C(=O)NCCCC(=O)N[C@@H](Cc3ccccc3)C(=O)N3Cc4ccccc4C[C@H]3C(=O)N3C[C@@H](C(=O)NCCCC(=O)N[C@@H](CCCCN)C(=O)N4Cc5ccccc5C[C@H]4C(=O)N[C@@H](CCCCN)C(=O)N[C@@H](CCCCN)C(=O)N[C@@H](CCCCN)C(=O)N[C@@H](CCCCN)C(=O)N[C@@H](CCCCN)C(N)=O)C4CCCCC43)C3CCCCC32)C2CCCCC21` (stereo partly drawn) (Ac-[GABA]F[Tic][X1][GABA]K[Tic][X1][GABA]F[Tic][X1][GABA]K[Tic]KKKKK-NH2), the MIC against Acinetobacter baumannii [1] is 5.8 µM (≈ 15.6 µg/mL); with Acinetobacter baumannii [2] it was 2.9 µM (≈ 7.78 µg/mL); with Staphylococcus aureus, 46.6 µM (≈ 125 µg/mL); against Yersinia pestis, 46.6 µM (≈ 125 µg/mL); in the test with Brucella melitensis, 46.6 µM (≈ 125 µg/mL); against Brucella abortus it was above 186 µM. For the same compound, the MIC with Brucella suis turned out to be 93 µM (≈ 249 µg/mL); with Bacillus anthracis it was 0.71 µM (≈ 1.9 µg/mL); with Francisella tularensis, 186 µM (≈ 499 µg/mL); against Burkholderia mallei, 186 µM (≈ 499 µg/mL); in test [3] it was 186 µM (≈ 499 µg/mL).
For the compound `CC(=O)NCCC(=O)N[C@@H](Cc1ccccc1)C(=O)N1Cc2ccccc2C[C@H]1C(=O)N1C[C@@H](C(=O)NCCC(=O)N[C@@H](CCCCN)C(=O)N2Cc3ccccc3C[C@H]2C(=O)N2C[C@@H](C(=O)NCCC(=O)N[C@@H](Cc3ccccc3)C(=O)N3Cc4ccccc4C[C@H]3C(=O)N3C[C@@H](C(=O)NCCC(=O)N[C@@H](CCCCN)C(=O)N[C@@H](CCCCN)C(=O)N[C@@H](CCCCN)C(=O)N[C@@H](CCCCN)C(=O)N[C@@H](CCCCN)C(N)=O)C4CCCCC43)C3CCCCC32)C2CCCCC21` (stereo partly drawn) (Ac-[βAla]F[Tic][X1][βAla]K[Tic][X1][βAla]F[Tic][X1][βAla]KKKKK-NH2), the MIC worked out at 1.5 µM (≈ 3.51 µg/mL) against Acinetobacter baumannii [1]; 6.2 µM (≈ 14.5 µg/mL) with Acinetobacter baumannii [2]; 200 µM (≈ 468 µg/mL) in the test with Staphylococcus aureus; 200 µM (≈ 468 µg/mL) against Yersinia pestis; 200 µM (≈ 468 µg/mL) in the test on Brucella melitensis; 200 µM (≈ 468 µg/mL) against Brucella abortus. Also, the MIC is 200 µM (≈ 468 µg/mL) in the test with Brucella suis; 25 µM (≈ 58.4 µg/mL) in the test on Bacillus anthracis; 100 µM (≈ 234 µg/mL) in the test with Francisella tularensis; 200 µM (≈ 468 µg/mL) in the test on Burkholderia mallei; 200 µM (≈ 468 µg/mL) in [3].
